For orientation: melting point means the temperature of the solid-liquid transition.

Where a name gives a salt, the structure may show the parent alone.

The values below come from patent US8173699B2, “Compounds for the treatment of inflammatory diseases” (Boehringer Ingelheim International GmbH, priority 2005, dated 2012).

With `CN(C)C(=O)CN(c1cccc(N/C(=C2\C(=O)Oc3ccccc32)c2ccc(CN)c(F)c2)c1)S(C)(=O)=O` (as salt: HCl) [Example 101], the melting point is 253 to 254 °C.

`CN1C(=O)/C(=C(\Nc2ccc(-c3cn(C)cn3)cc2)c2ccc(CN)cc2)c2ccccc21` [Example 36, 3-{(4-aminomethylphenyl)-[4-(1-methyl-1H-imidazol-4-yl)phenylamino]methylene}-1-methyl-1,3-dihydroindol-2-one] came in with a melting point of 214 to 217 °C.

As to `Cc1nc(-c2ccc(N/C(=C3\C(=O)Oc4ccccc43)c3ccc(CN)c(F)c3)cc2)cs1` [Example 102], the melting point lay in the range of 196 to 197 °C.
